Measured values published in ChEMBL document CHEMBL1201862, “PubChem BioAssay data set” (2004).
The source made the active and inactive calls.

Columns and labels:
[1] = viability loss in HepG2 hepatoma cells – cell-based, cherry-picks, set 5, cytotoxicity control, dose response (AID 1053118); format: functional
[2] = viability loss in A549 lung cancer cells – cell-based, cherry-picks, […], cytotoxicity control, dose response (AID 1053119); format: functional
[3] = inhibition of fibronectin matrix deposition – AH1F cells, Alexa488-fibronectin fluorescence, cherry-pick, set 2, dose response (AID 1117283); format: functional, cell-based
[4] = Dd2 parasite growth inhibition in erythrocytes – SYBR Green, dry powder samples, set 4, dose response (AID 1159572); format: functional, cell-based
[5] = rise of 2N DNA cells, HeLa – IC50, dose response (AID 1117349); format: functional, cell-based
[6] = CellTiter-Glo luminescence survival assay, SW480 colon tumor line, concentration-response curve, half-maximal inhibitory concentration (AID 1117338); format: functional
[7] = RKO cell viability reduction, dose response, CellTiter-Glo luminescence (AID 1117322); format: functional
[8] = cytotoxicity toward HCT116 cells – cell-based, CellTiter-Glo luminescence, IC50, dose response (AID 1117332); format: functional; conditions: HCT-116
[9] = SNU-C1 cell viability reduction, dose response, CellTiter-Glo luminescence (AID 1117323); format: functional, cell-based
[10] = rise of 4N DNA cells, HeLa – IC50, dose response (AID 1117351); format: functional, cell-based
[11] = cytotoxicity toward HT-29 cells – cell-based, CellTiter-Glo luminescence, IC50, dose response (AID 1117330); format: functional
[12] = Reduced DLD-1 viability, concentration-response, CellTiter-Glo luminescence (AID 1117352); format: functional
[13] = HCT116 cell viability decrease, GSK3B pretreatment – CellTiter-Glo, IC50, dose response (AID 1117339); format: functional; conditions: HCT-116
[14] = biological target: Heat shock protein HSP 90-alpha (Homo sapiens, UniProt P07900); format: functional, organism-based
Vero [15] = experiment: cells; format: functional, cell-based; conditions: Chlorocebus sabaeus
HSP90 = HSP90 (Plasmodium falciparum 3D7, UniProt Q8IL32); format: functional, organism-based
Sequence of HSP90 (Q8IL32 whole entry): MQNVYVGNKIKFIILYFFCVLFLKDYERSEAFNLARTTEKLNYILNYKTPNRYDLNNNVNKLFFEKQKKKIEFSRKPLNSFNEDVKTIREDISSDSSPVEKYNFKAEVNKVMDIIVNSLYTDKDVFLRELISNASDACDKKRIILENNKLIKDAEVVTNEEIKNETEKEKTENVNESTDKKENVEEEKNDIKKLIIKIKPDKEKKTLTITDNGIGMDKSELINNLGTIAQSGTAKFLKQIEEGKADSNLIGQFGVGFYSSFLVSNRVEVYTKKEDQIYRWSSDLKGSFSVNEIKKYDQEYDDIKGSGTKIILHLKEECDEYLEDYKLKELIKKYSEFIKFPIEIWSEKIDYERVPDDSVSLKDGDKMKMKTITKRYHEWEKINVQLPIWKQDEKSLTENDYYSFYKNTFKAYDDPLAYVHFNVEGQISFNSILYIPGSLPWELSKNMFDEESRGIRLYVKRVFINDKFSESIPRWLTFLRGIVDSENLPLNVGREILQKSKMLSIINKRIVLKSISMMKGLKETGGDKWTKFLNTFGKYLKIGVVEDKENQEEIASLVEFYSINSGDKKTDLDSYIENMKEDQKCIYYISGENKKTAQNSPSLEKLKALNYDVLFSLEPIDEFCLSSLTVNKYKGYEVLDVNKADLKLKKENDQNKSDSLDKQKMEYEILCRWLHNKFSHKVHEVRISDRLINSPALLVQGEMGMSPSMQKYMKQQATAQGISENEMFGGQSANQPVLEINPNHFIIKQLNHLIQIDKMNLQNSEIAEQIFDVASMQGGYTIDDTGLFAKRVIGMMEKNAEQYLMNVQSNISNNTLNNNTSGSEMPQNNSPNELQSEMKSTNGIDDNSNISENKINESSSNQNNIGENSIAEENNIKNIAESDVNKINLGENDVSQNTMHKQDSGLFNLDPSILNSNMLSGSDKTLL

Vero [16] = experiment: cells; format: functional; conditions: Chlorocebus sabaeus
[17] = cytotoxicity toward Colo320 cells – cell-based, CellTiter-Glo luminescence, IC50, dose response (AID 1117334); format: functional; conditions: COLO 320

Row | Structure (SMILES) | IC50 [6] | IC50 [7] | IC50 [8] | IC50 [9] | IC50 [11] | IC50 [12] | IC50 [13] | also measured
1 | O=C(c1cccnc1)N1C[C@@H]2[C@H](c3ccccc31)[C@H](CO)N2CC1CCCC1 | – | – | – | – | – | – | – | AC50 [1]: > 47 µM (inactive); AC50 [2]: > 47 µM (inactive); AC50 [3]: > 60 µM (inactive)
2 | COc1ccc2c3c([nH]c2c1)[C@H](CO)N(C(C)=O)CC31CCN(S(=O)(=O)c2ccccc2)CC1 | – | – | – | – | – | – | – | AC50 [4]: 9.86 µM (active)
3 | CC(C)c1c(C(=O)Nc2ccccc2)c(-c2ccccc2)c(-c2ccc(F)cc2)n1CC[C@@H](O)C[C@@H](O)CC(=O)O [ATORVASTATIN CALCIUM] | > 20 µM (inactive) | > 20 µM (inactive) | > 20 µM (inactive) | > 20 µM (inactive) | > 20 µM (inactive) | > 20 µM (inactive) | 4.79 µM (active) | IC50 [5]: > 10 µM (inactive); IC50 [10]: > 10 µM (inactive)
4 | Oc1c(Br)cc(Br)c2cccnc12 [BROXYQUINOLINE] | 0.132 µM (active) | 0.163 µM (active) | 0.193 µM (active) | 0.366 µM (active) | 5.25 µM (inactive) | 0.157 µM (active) | 0.183 µM (active) | AC50 [14]: 0.7 µM (active); IC50 (Vero [15]): > 25 µM (active); AC50 (HSP90): 0.373 µM (active); CC50 (Vero [16]): 18.7 µM (active); IC50 [17]: 0.114 µM (active)
